Assay results from the NIST ThermoML archive (doi:10.1021/acs.jced.8b01146).
Where “and” joins values, the source holds several entries; their conditions need not be identical. Equal entries are not always repeated.

Columns and labels:
[1] = xn = mol fraction of the nth substance listed; details: 100 kPa, Liquid, Vibrating tube method
[2] = excess molar enthalpy (molar enthalpy of mixing); xn = mol fraction of the nth substance listed; details: 100 kPa, Liquid, Calvet calorimetry

CC1=CCC(=O)O1 [5-methylfuran-2(3H)-one] + O
Details	excess molar enthalpy, [2]	mass density, [1]
288.15 K, x1 = 0.001003	-0.000397 kcal/mol and -0.000394 kcal/mol	999.878 kg/m3 and 999.871 kg/m3
288.15 K, x1 = 0.002004	-0.000729 kcal/mol	1000.64 kg/m3
288.15 K, x1 = 0.002005	-0.000727 kcal/mol	1000.64 kg/m3
288.15 K, x1 = 0.003003	-0.00101 kcal/mol	1001.39 kg/m3
288.15 K, x1 = 0.003004	-0.00101 kcal/mol	1001.39 kg/m3
288.15 K, x1 = 0.004	-0.00125 kcal/mol	1002.15 kg/m3
288.15 K, x1 = 0.004001	-0.00123 kcal/mol	1002.14 kg/m3
288.15 K, x1 = 0.004995	-0.00143 kcal/mol	1002.91 kg/m3
288.15 K, x1 = 0.004996	-0.00141 kcal/mol	1002.92 kg/m3
288.15 K, x1 = 0.00599	-0.00152 kcal/mol and -0.00155 kcal/mol	1003.65 kg/m3 and 1003.64 kg/m3
298.15 K, x1 = 0.001003	-2.65e-05 kcal/mol	997.759 kg/m3
298.15 K, x1 = 0.001004	-2.65e-05 kcal/mol	997.756 kg/m3
298.15 K, x1 = 0.002004	-6.21e-06 kcal/mol	998.467 kg/m3
298.15 K, x1 = 0.002006	-6.21e-06 kcal/mol	998.464 kg/m3
298.15 K, x1 = 0.003003	6.57e-05 kcal/mol	999.156 kg/m3
298.15 K, x1 = 0.003005	6.05e-05 kcal/mol	999.156 kg/m3
298.15 K, x1 = 0.004	0.000175 kcal/mol	999.847 kg/m3
298.15 K, x1 = 0.004003	0.000175 kcal/mol	999.843 kg/m3
298.15 K, x1 = 0.004993	0.000335 kcal/mol	1000.51 kg/m3
298.15 K, x1 = 0.004998	0.000332 kcal/mol	1000.53 kg/m3
298.15 K, x1 = 0.005987	0.000559 kcal/mol	1001.2 kg/m3
298.15 K, x1 = 0.005992	0.000571 kcal/mol	1001.21 kg/m3
308.15 K, x1 = 0.001003	0.000327 kcal/mol and 0.000325 kcal/mol	994.684 kg/m3
308.15 K, x1 = 0.002003	0.000693 kcal/mol	995.33 kg/m3
308.15 K, x1 = 0.002004	0.000693 kcal/mol	995.328 kg/m3
308.15 K, x1 = 0.003002	0.0011 kcal/mol	995.967 kg/m3
308.15 K, x1 = 0.003003	0.0011 kcal/mol	995.967 kg/m3
308.15 K, x1 = 0.003999	0.00155 kcal/mol	996.597 kg/m3
308.15 K, x1 = 0.004	0.00153 kcal/mol	996.594 kg/m3
308.15 K, x1 = 0.004994	0.00204 kcal/mol	997.199 kg/m3
308.15 K, x1 = 0.004995	0.00202 kcal/mol	997.205 kg/m3
308.15 K, x1 = 0.005987	0.00257 kcal/mol	997.78 kg/m3
308.15 K, x1 = 0.00599	0.00258 kcal/mol	997.837 kg/m3
318.15 K, x1 = 0.001003	0.000667 kcal/mol	990.808 kg/m3 and 990.803 kg/m3
318.15 K, x1 = 0.002003	0.00136 kcal/mol and 0.00137 kcal/mol	991.392 kg/m3 and 991.396 kg/m3
318.15 K, x1 = 0.003002	0.00211 kcal/mol and 0.0021 kcal/mol	991.977 kg/m3 and 991.98 kg/m3
318.15 K, x1 = 0.003998	0.00286 kcal/mol	992.55 kg/m3
318.15 K, x1 = 0.003999	0.00286 kcal/mol	992.546 kg/m3
318.15 K, x1 = 0.004993	0.00369 kcal/mol and 0.00367 kcal/mol	993.112 kg/m3 and 993.102 kg/m3
318.15 K, x1 = 0.005986	0.00455 kcal/mol	993.663 kg/m3
318.15 K, x1 = 0.005987	0.00456 kcal/mol	993.668 kg/m3

O=C1CCCO1 [γ-butyrolactone] + O
Details	excess molar enthalpy, [2]	mass density, [1]
288.15 K, x1 = 0.00118	-0.000825 kcal/mol	999.977 kg/m3
288.15 K, x1 = 0.001181	-0.000827 kcal/mol	999.978 kg/m3
288.15 K, x1 = 0.002358	-0.00163 kcal/mol	1000.85 kg/m3
288.15 K, x1 = 0.003533	-0.0024 kcal/mol	1001.72 kg/m3
288.15 K, x1 = 0.003534	-0.0024 kcal/mol	1001.72 kg/m3
288.15 K, x1 = 0.004705	-0.00315 kcal/mol	1002.58 kg/m3
288.15 K, x1 = 0.004706	-0.00315 kcal/mol	1002.59 kg/m3
288.15 K, x1 = 0.005874	-0.00388 kcal/mol	1003.43 kg/m3
288.15 K, x1 = 0.005876	-0.00387 kcal/mol	1003.43 kg/m3
288.15 K, x1 = 0.007042	-0.00458 kcal/mol	1004.27 kg/m3
288.15 K, x1 = 0.007044	-0.00458 kcal/mol	1004.28 kg/m3
298.15 K, x1 = 0.001179	-0.000598 kcal/mol	997.864 kg/m3
298.15 K, x1 = 0.002356	-0.00117 kcal/mol	998.672 kg/m3
298.15 K, x1 = 0.00353	-0.00171 kcal/mol	999.474 kg/m3
298.15 K, x1 = 0.004701	-0.00224 kcal/mol	1000.27 kg/m3
298.15 K, x1 = 0.005869	-0.00275 kcal/mol	1001.06 kg/m3
298.15 K, x1 = 0.007036	-0.00324 kcal/mol	1001.84 kg/m3
308.15 K, x1 = 0.001179	-0.000363 kcal/mol and -0.000361 kcal/mol	994.794 kg/m3 and 994.797 kg/m3
308.15 K, x1 = 0.002356	-0.0007 kcal/mol and -0.000698 kcal/mol	995.554 kg/m3 and 995.552 kg/m3
308.15 K, x1 = 0.00353	-0.00101 kcal/mol	996.301 kg/m3
308.15 K, x1 = 0.003531	-0.00101 kcal/mol	996.302 kg/m3
308.15 K, x1 = 0.004702	-0.00131 kcal/mol	997.038 kg/m3
308.15 K, x1 = 0.004703	-0.0013 kcal/mol	997.039 kg/m3
308.15 K, x1 = 0.00587	-0.00158 kcal/mol	997.774 kg/m3
308.15 K, x1 = 0.005871	-0.00158 kcal/mol	997.78 kg/m3
308.15 K, x1 = 0.007038	-0.00184 kcal/mol	998.505 kg/m3 and 998.496 kg/m3
318.15 K, x1 = 0.001181	-0.000116 kcal/mol and -0.000115 kcal/mol	990.926 kg/m3 and 990.925 kg/m3
318.15 K, x1 = 0.002359	-0.000209 kcal/mol and -0.000208 kcal/mol	991.631 kg/m3 and 991.634 kg/m3
318.15 K, x1 = 0.003534	-0.000283 kcal/mol and -0.000286 kcal/mol	992.336 kg/m3 and 992.333 kg/m3
318.15 K, x1 = 0.004706	-0.000346 kcal/mol	993.03 kg/m3
318.15 K, x1 = 0.004707	-0.000343 kcal/mol	993.03 kg/m3
318.15 K, x1 = 0.005875	-0.00039 kcal/mol	993.721 kg/m3
318.15 K, x1 = 0.005876	-0.000386 kcal/mol	993.713 kg/m3
318.15 K, x1 = 0.007043	-0.000418 kcal/mol	994.396 kg/m3
318.15 K, x1 = 0.007044	-0.000413 kcal/mol	994.396 kg/m3

CC1CCC(=O)O1 (stereo not given) [γ-valerolactone] + O
Details	excess molar enthalpy, [2]	mass density, [1]
288.15 K, x1 = 0.000948	-0.00117 kcal/mol	999.61 kg/m3
288.15 K, x1 = 0.001895	-0.0023 kcal/mol	1000.12 kg/m3
288.15 K, x1 = 0.00284	-0.00341 kcal/mol	1000.62 kg/m3
288.15 K, x1 = 0.003783	-0.00447 kcal/mol	1001.12 kg/m3
288.15 K, x1 = 0.004724	-0.00551 kcal/mol	1001.62 kg/m3
288.15 K, x1 = 0.005663	-0.00652 kcal/mol	1002.11 kg/m3
298.15 K, x1 = 0.000947	-0.000872 kcal/mol	997.5 kg/m3
298.15 K, x1 = 0.001893	-0.00171 kcal/mol	997.952 kg/m3 and 997.948 kg/m3
298.15 K, x1 = 0.002836	-0.00252 kcal/mol	998.397 kg/m3
298.15 K, x1 = 0.002837	-0.00253 kcal/mol	998.399 kg/m3
298.15 K, x1 = 0.003778	-0.00331 kcal/mol	998.844 kg/m3
298.15 K, x1 = 0.003779	-0.00331 kcal/mol	998.843 kg/m3
298.15 K, x1 = 0.004718	-0.00407 kcal/mol	999.282 kg/m3
298.15 K, x1 = 0.004719	-0.00406 kcal/mol	999.28 kg/m3
298.15 K, x1 = 0.005658	-0.00479 kcal/mol and -0.00481 kcal/mol	999.717 kg/m3 and 999.723 kg/m3
308.15 K, x1 = 0.000947	-0.000574 kcal/mol	994.435 kg/m3
308.15 K, x1 = 0.001892	-0.00113 kcal/mol	994.839 kg/m3
308.15 K, x1 = 0.001893	-0.00113 kcal/mol	994.839 kg/m3
308.15 K, x1 = 0.002835	-0.00165 kcal/mol	995.239 kg/m3
308.15 K, x1 = 0.002836	-0.00165 kcal/mol	995.239 kg/m3
308.15 K, x1 = 0.003777	-0.00215 kcal/mol	995.637 kg/m3
308.15 K, x1 = 0.003778	-0.00215 kcal/mol	995.634 kg/m3
308.15 K, x1 = 0.004716	-0.00262 kcal/mol	996.023 kg/m3
308.15 K, x1 = 0.004718	-0.00261 kcal/mol	996.023 kg/m3
308.15 K, x1 = 0.005656	-0.00306 kcal/mol and -0.00308 kcal/mol	996.412 kg/m3 and 996.415 kg/m3
318.15 K, x1 = 0.000946	-0.000275 kcal/mol	990.573 kg/m3
318.15 K, x1 = 0.000947	-0.000275 kcal/mol	990.572 kg/m3
318.15 K, x1 = 0.001891	-0.000526 kcal/mol	990.933 kg/m3
318.15 K, x1 = 0.001892	-0.000526 kcal/mol	990.933 kg/m3
318.15 K, x1 = 0.002835	-0.000758 kcal/mol	991.289 kg/m3
318.15 K, x1 = 0.003776	-0.00097 kcal/mol	991.639 kg/m3
318.15 K, x1 = 0.003777	-0.000966 kcal/mol	991.641 kg/m3
318.15 K, x1 = 0.004716	-0.00115 kcal/mol and -0.00114 kcal/mol	991.985 kg/m3 and 991.983 kg/m3
318.15 K, x1 = 0.005655	-0.00131 kcal/mol and -0.00132 kcal/mol	992.329 kg/m3 and 992.332 kg/m3
